We go through 20 compounds from BindingDB's records for doi:10.1021/jm00140a010 (1982).

Structures can show the parent of a compound that is named as a salt.

The test addresses Angiotensin-converting enzyme. The test is described as follows: Concentration required to inhibit the activity of Angiotensin I converting enzyme by 50%.
What is called IC50 is the concentration that gives 50% inhibition. Higher therefore signals weaker potency. Take `CC(=O)NC(Cc1ccccc1)C(=O)CCC(=O)N1CCC[C@H]1C(=O)O` (stereo not given in full) [1-(5-Acetylamino-4-oxo-6-phenyl-hexanoyl)-pyrrolidine-2-carboxylic acid]: the IC50 was determined as 330 nM.

`NC(Cc1ccccc1)C(=O)CCC(=O)N1CCC[C@H]1C(=O)O` (stereo not given in full) [1-(5-Amino-4-oxo-6-phenyl-hexanoyl)-pyrrolidine-2-carboxylic acid; hydrochloride] came in with an IC50 of 25000 nM.

In the case of `O=C(NC(Cc1ccccc1)=C(CCC(=O)N1CCC[C@H]1C(=O)O)NO)c1ccccc1` [1-(5-Benzoylamino-4-hydroxyimino-6-phenyl-hexanoyl)-pyrrolidine-2-carboxylic acid], half-maximal inhibition (IC50) was put at 1200 nM.

As to `NC(=O)[C@@H]1CCCN1C(=O)CCC(=O)C(Cc1ccccc1)NC(=O)c1ccccc1` (stereo not given in full) [1-(5-Benzoylamino-4-oxo-6-phenyl-hexanoyl)-pyrrolidine-2-carboxylic acid amide], it took 150 nM to reach half-maximal inhibition (IC50).

Turning to `O=C(NC(Cc1cccnc1)C(=O)CCC(=O)N1CCC[C@H]1C(=O)OCc1ccccc1)c1ccccc1` (stereo not given in full) [1-(5-Benzoylamino-4-oxo-6-pyridin-3-yl-hexanoyl)-pyrrolidine-2-carboxylic acid benzyl ester], half-maximal inhibition (IC50) was put at 15 nM.

`O=C(NC(Cc1cccnc1)C(=O)CCC(=O)N1CCC[C@H]1C(=O)O)c1ccccc1` (stereo not given in full) [1-(5-Benzoylamino-4-oxo-6-pyridin-3-yl-hexanoyl)-pyrrolidine-2-carboxylic acid] came in with an IC50 of 5.7 nM.

With `CC(NC(=O)c1ccccc1)C(=O)CCC(=O)N1CCC[C@H]1C(=O)O` (stereo not given in full) [1-(5-Benzoylamino-4-oxo-hexanoyl)-pyrrolidine-2-carboxylic acid], the IC50 worked out at 300 nM.

As to `O=C(NC(Cc1ccccc1)C(=O)CCC(=O)N1CCC[C@H]1C(=O)O)OCc1ccccc1` (stereo not given in full) [1-(5-Benzyloxycarbonylamino-4-oxo-6-phenyl-hexanoyl)-pyrrolidine-2-carboxylic acid], it took 240 nM to reach half-maximal inhibition (IC50).

For the compound `O=C(NC(Cc1ccccc1)C(=O)CCCC(=O)N1CCC[C@H]1C(=O)O)c1ccccc1` (stereo not given in full) [1-(6-Benzoylamino-5-oxo-7-phenyl-heptanoyl)-pyrrolidine-2-carboxylic acid], the IC50 stood at 42 nM.

For `Cc1ccccc1C(=O)NC(Cc1ccccc1)C(=O)CCC(=O)N1CCC[C@H]1C(=O)OCc1ccccc1` (stereo not given in full) [1-[5-(2-Methyl-benzoylamino)-4-oxo-6-phenyl-hexanoyl]-pyrrolidine-2-carboxylic acid benzyl ester], the IC50 came out at 1600 nM.

Turning to `Cc1ccccc1C(=O)NC(Cc1ccccc1)C(=O)CCC(=O)N1CCC[C@H]1C(=O)O` (stereo not given in full) [1-[5-(2-Methyl-benzoylamino)-4-oxo-6-phenyl-hexanoyl]-pyrrolidine-2-carboxylic acid], the half-maximal inhibitory concentration (IC50) worked out at 46 nM.

The compound `COc1ccc(CC(NC(=O)c2ccccc2)C(=O)CCC(=O)N2CCC[C@H]2C(=O)O)cc1OC` (stereo not given in full) [1-[5-Benzoylamino-6-(3,4-dimethoxy-phenyl)-4-oxo-hexanoyl]-pyrrolidine-2-carboxylic acid] came in with an IC50 of 1.4 nM. This IC50 lies about 33-fold lower than the previous one.

Compound `O=C(NC(Cc1ccc(OCc2ccccc2)cc1)C(=O)CCC(=O)N1CCC[C@H]1C(=O)OCc1ccccc1)c1ccccc1` (stereo not given in full) [1-[5-Benzoylamino-6-(4-benzyloxy-phenyl)-4-oxo-hexanoyl]-pyrrolidine-2-carboxylic acid benzyl ester] had an IC50 of 86 nM. Compared with the last compound, the IC50 is about 61-fold higher.

`CC(C)(C)OC(=O)[C@@H]1CCCN1C(=O)CCC(=O)C(Cc1ccc(OCc2ccccc2)cc1)NC(=O)c1ccccc1` (stereo not given in full) [1-[5-Benzoylamino-6-(4-benzyloxy-phenyl)-4-oxo-hexanoyl]-pyrrolidine-2-carboxylic acid tert-butyl ester] showed an IC50 of 8600 nM.

For `O=C(NC(Cc1ccc(OCc2ccccc2)cc1)C(=O)CCC(=O)N1CCC[C@H]1C(=O)O)c1ccccc1` (stereo not given in full) [1-[5-Benzoylamino-6-(4-benzyloxy-phenyl)-4-oxo-hexanoyl]-pyrrolidine-2-carboxylic acid], the 50% inhibitory concentration (IC50) is 10 nM.

For the compound `O=C(NC(Cc1ccc(O)cc1)C(=O)CCC(=O)N1CCC[C@H]1C(=O)O)c1ccccc1` (stereo not given in full) [1-[5-Benzoylamino-6-(4-hydroxy-phenyl)-4-oxo-hexanoyl]-pyrrolidine-2-carboxylic acid], the IC50 is 4.7 nM.

The compound `O=C(CCC(=O)N1CCC[C@H]1C(=O)O)C(Cc1ccccc1)NC(=O)C1CCCO1` (stereo not given in full) [1-{4-Oxo-6-phenyl-5-[(tetrahydro-furan-2-carbonyl)-amino]-hexanoyl}-pyrrolidine-2-carboxylic acid] yielded an IC50 of 20 nM.

Compound `O=C(NC(Cc1ccccc1)C(=O)CCC(=O)N1CCC[C@H]1C(=O)O)c1ccco1` (stereo not given in full) [1-{5-[(Furan-2-carbonyl)-amino]-4-oxo-6-phenyl-hexanoyl}-pyrrolidine-2-carboxylic acid] displayed an IC50 of 1.4 nM.

Turning to `O=C(CCC(=O)C(Cc1ccccc1)NC(=O)c1ccccc1)NC(Cc1ccccc1)C(=O)OCc1ccccc1` (stereo not given) [2-(5-Benzoylamino-4-oxo-6-phenyl-hexanoylamino)-3-phenyl-propionic acid benzyl ester], the IC50 was 180 nM.

`O=C(CCC(=O)C(Cc1ccccc1)NC(=O)c1ccccc1)N[C@H](Cc1ccccc1)C(=O)O` (stereo not given in full) [2-(5-Benzoylamino-4-oxo-6-phenyl-hexanoylamino)-3-phenyl-propionic acid] returned an IC50 of 28 nM.
